Results published in PubChem BioAssay AID248 (DTP/NCI, 2004).
Several values for one entry are separate records, joined by “and”; a condition that tells them apart may be missing. Equal entries are not always repeated. Toxic doses and inconclusive results are not listed. Rule as the data show it: active = T/C of 150% or more; inactive = T/C below 125%.

System: L1210 leukemia ip in BDF1 mice, survival T/C
Experiment: NCI In Vivo Anticancer Drug Screen. Data for tumor model L1210 Leukemia (intraperitoneal) in B6D2F1 (BDF1) mice
Details: endpoint: mean survival time, higher = longer survival
How it was run: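 Read-out is survival time, reported as the treated-group measurement over the vehicle-control measurement.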

[1] = dose: 100.0 mg/kg/injection, schedule: Q01DX001 (ip), vehicle: carboxymethylcellulose (CMC)
[2] = dose: 100.0 mg/kg/injection, schedule: Q04DX003 (ip), vehicle: Klucel (hydroxypropylcellulose) (HPC)
[3] = dose: 200.0 mg/kg/injection, schedule: Q01DX001 (ip), vehicle: carboxymethylcellulose (CMC)
[4] = dose: 200.0 mg/kg/injection, schedule: Q04DX003 (ip), vehicle: Klucel (hydroxypropylcellulose) (HPC)
[5] = dose: 400.0 mg/kg/injection, schedule: Q04DX003 (ip), vehicle: Klucel (hydroxypropylcellulose) (HPC)
[6] = dose: 100.0 mg/kg/injection, schedule: Q04DX002 (ip), vehicle: Klucel (hydroxypropylcellulose) (HPC)
[7] = dose: 200.0 mg/kg/injection, schedule: Q04DX002 (ip), vehicle: Klucel (hydroxypropylcellulose) (HPC)
[8] = dose: 400.0 mg/kg/injection, schedule: Q04DX002 (ip), vehicle: Klucel (hydroxypropylcellulose) (HPC)
[9] = dose: 100.0 mg/kg/injection, schedule: Q04DX003 (ip), vehicle: saline with Tween-80
[10] = dose: 200.0 mg/kg/injection, schedule: Q04DX003 (ip), vehicle: saline with Tween-80
[11] = dose: 100.0 mg/kg/injection, schedule: Q01DX009 (ip), vehicle: saline with Tween-80
[12] = dose: 200.0 mg/kg/injection, schedule: Q01DX009 (ip), vehicle: saline with Tween-80
[13] = dose: 400.0 mg/kg/injection, schedule: Q01DX009 (ip), vehicle: saline with Tween-80
[14] = dose: 6.25 mg/kg/injection, schedule: Q01DX009 (ip), vehicle: saline
[15] = dose: 12.5 mg/kg/injection, schedule: Q01DX009 (ip), vehicle: saline

Measured: T/C

NC(CSCc1ccccc1)C(=O)O (stereo unspecified)
inactive: dose: 7.0 mg/kg/injection, schedule: Q01DX015 (ip), vehicle: saline 97 % of control | dose: 15.0 mg/kg/injection, schedule: Q01DX015 (ip), vehicle: saline 97 % of control | dose: 29.0 mg/kg/injection, schedule: Q01DX015 (ip), vehicle: saline 101 % of control | dose: 50.0 mg/kg/injection, schedule: Q01DX001 (ip), vehicle: carboxymethylcellulose (CMC) 89 % of control | dose: 58.0 mg/kg/injection, schedule: Q01DX015 (ip), vehicle: saline 97 % of control | [1] 101 % of control | [2] 100 % of control | dose: 117.0 mg/kg/injection, schedule: Q01DX015 (ip), vehicle: saline 97 % of control | [3] 89 % of control | [4] 94 % of control | dose: 233.0 mg/kg/injection, schedule: Q01DX015 (ip), vehicle: saline 95 % of control | [5] 96 % of control

CSc1cc2c(c(SC)c1[N+](=O)[O-])C(=O)c1ccccc1-2
inactive: [1] 102 % of control | [3] 98 % of control | dose: 400.0 mg/kg/injection, schedule: Q01DX001 (ip), vehicle: carboxymethylcellulose (CMC) 102 % of control

O=C(/C=C/c1cccc([N+](=O)[O-])c1)Nc1cccnc1
inactive: dose: 100.0 mg/kg/injection, schedule: Q01DX009 (ip), vehicle: gum acacia 90 % of control | dose: 200.0 mg/kg/injection, schedule: Q01DX009 (ip), vehicle: gum acacia 96 % of control | dose: 400.0 mg/kg/injection, schedule: Q01DX009 (ip), vehicle: gum acacia 94 % of control

COc1ccc(NC(=O)NC2CCCCC2)c(Cl)c1
inactive: [6] 97 % of control | [7] 102 % of control | [8] 94 % of control

O=C(/C=C/c1ccncc1)c1cccc2ccccc12
inactive: [9] 89 % of control | [10] 97 % of control

CC(C)COC(=O)Nc1cccc(O)c1
inactive: [11] 91 % of control | [12] 90 % of control | [13] 94 % of control

Cc1cccc2cccnc12
inactive: dose: 100.0 mg/kg/injection, schedule: Q01DX001 (ip), vehicle: other 104 % of control | dose: 200.0 mg/kg/injection, schedule: Q01DX001 (ip), vehicle: other 106 % of control | dose: 400.0 mg/kg/injection, schedule: Q01DX001 (ip), vehicle: other 98 % of control

CCN(CC)c1ccc(N=Nc2c(C)nc(N)nc2-c2ccccc2)cc1
inactive: dose: 5.0 mg/kg/injection, schedule: Q01DX001 (ip), vehicle: saline 103 % of control | dose: 10.0 mg/kg/injection, schedule: Q01DX001 (ip), vehicle: saline 96 % of control | dose: 20.0 mg/kg/injection, schedule: Q01DX001 (ip), vehicle: saline 91 % of control | dose: 40.0 mg/kg/injection, schedule: Q01DX001 (ip), vehicle: saline 92 % of control | dose: 80.0 mg/kg/injection, schedule: Q01DX001 (ip), vehicle: saline 87 % of control

CCN(CC)CCCN1c2ccccc2Sc2ccc(Cl)cc21
inactive: dose: 1.56 mg/kg/injection, schedule: Q01DX009 (ip), vehicle: saline 102 % of control | dose: 3.12 mg/kg/injection, schedule: Q01DX009 (ip), vehicle: saline 98 % of control | [14] 96 % of control | [15] 103 % of control | dose: 12.5 mg/kg/injection, schedule: Q04DX003 (ip), vehicle: saline 102 % of control | dose: 25.0 mg/kg/injection, schedule: Q04DX003 (ip), vehicle: saline 109 % of control

O=Cc1ccc(OCCBr)cc1
inactive: [9] 98 % of control | [10] 97 % of control | dose: 400.0 mg/kg/injection, schedule: Q04DX003 (ip), vehicle: saline with Tween-80 103 % of control

C=C(C)C(=NC)Nc1ccc(Cl)c(Cl)c1
inactive: dose: 222.0 mg/kg/injection, schedule: Q01DX Z (ip), vehicle: methylcellulose (MC) 98 % of control | dose: 333.0 mg/kg/injection, schedule: Q01DX Z (ip), vehicle: methylcellulose (MC) 91 % of control | dose: 500.0 mg/kg/injection, schedule: Q01DX Z (ip), vehicle: methylcellulose (MC) 93 % of control

COc1ccc(C(CC(=O)c2ccc3c(c2)OCO3)C(=O)O)cc1OC (stereo unspecified)
inactive: dose: 100.0 mg/kg/injection, schedule: Q01DX009 (ip), vehicle: Klucel (hydroxypropylcellulose) (HPC) 93 % of control | [2] 100 % of control | dose: 200.0 mg/kg/injection, schedule: Q01DX009 (ip), vehicle: Klucel (hydroxypropylcellulose) (HPC) 98 % of control | [4] 96 % of control | dose: 400.0 mg/kg/injection, schedule: Q01DX009 (ip), vehicle: Klucel (hydroxypropylcellulose) (HPC) 93 % of control | [5] 93 % of control

COc1cc([N+](=O)[O-])ccc1NC(=O)N(C)C1CCCCC1
inactive: dose: 100.0 mg/kg/injection, schedule: Q01DX001 (ip), vehicle: saline with Tween-80 103 % of control | [11] 98 % of control and 91 % of control | dose: 100.0 mg/kg/injection, schedule: Q04DX002 (ip), vehicle: saline with Tween-80 99 % of control and 105 % of control | dose: 200.0 mg/kg/injection, schedule: Q01DX001 (ip), vehicle: saline with Tween-80 100 % of control | [12] 92 % of control and 96 % of control | dose: 200.0 mg/kg/injection, schedule: Q04DX002 (ip), vehicle: saline with Tween-80 94 % of control and 86 % of control | dose: 400.0 mg/kg/injection, schedule: Q01DX001 (ip), vehicle: saline with Tween-80 94 % of control | [13] 94 % of control and 98 % of control | dose: 400.0 mg/kg/injection, schedule: Q04DX002 (ip), vehicle: saline with Tween-80 94 % of control and 89 % of control

CSc1ncnc2c1ncn2NC(=O)C1CC(=O)N(C)C1 (stereo unspecified)
inactive: dose: 100.0 mg/kg/injection, schedule: Q01DX001 (ip), vehicle: saline 107 % of control | dose: 200.0 mg/kg/injection, schedule: Q01DX001 (ip), vehicle: saline 103 % of control | dose: 400.0 mg/kg/injection, schedule: Q01DX001 (ip), vehicle: saline 100 % of control

Cc1ccccc1CC#N
inactive: [14] 108 % of control | [15] 108 % of control | dose: 25.0 mg/kg/injection, schedule: Q01DX009 (ip), vehicle: saline 101 % of control

Cc1ccc(S(=O)(=O)NN=C(/C=C/c2ccccc2)/C=C/c2ccccc2)cc1
inactive: dose: 50.0 mg/kg/injection, schedule: Q01DX001 (ip), vehicle: Klucel (hydroxypropylcellulose) (HPC) 102 % of control | dose: 100.0 mg/kg/injection, schedule: Q01DX001 (ip), vehicle: Klucel (hydroxypropylcellulose) (HPC) 107 % of control | dose: 200.0 mg/kg/injection, schedule: Q01DX001 (ip), vehicle: Klucel (hydroxypropylcellulose) (HPC) 103 % of control

COc1ccc(-n2cccc2)cc1
inactive: dose: 100.0 mg/kg/injection, schedule: Q01DX001 (ip), vehicle: steriod suspending solution 95 % of control | [6] 90 % of control | dose: 200.0 mg/kg/injection, schedule: Q01DX001 (ip), vehicle: steriod suspending solution 100 % of control | [7] 90 % of control | dose: 400.0 mg/kg/injection, schedule: Q01DX001 (ip), vehicle: steriod suspending solution 106 % of control | [8] 94 % of control

CC(=O)Nc1ccc(/C=N\N=C\c2ccc(NC(C)=O)cc2)cc1
inactive: dose: 100.0 mg/kg/injection, schedule: Q01DX009 (ip), vehicle: saline 88 % of control | dose: 100.0 mg/kg/injection, schedule: Q04DX003 (ip), vehicle: saline 100 % of control | dose: 200.0 mg/kg/injection, schedule: Q01DX009 (ip), vehicle: saline 86 % of control | dose: 200.0 mg/kg/injection, schedule: Q04DX003 (ip), vehicle: saline 105 % of control | dose: 400.0 mg/kg/injection, schedule: Q04DX003 (ip), vehicle: saline 100 % of control
